According to patent US11684582B2, “Method for stabilizing humidity-sensitive pharmaceutical substance and stabilized preparation thereof” (Delta-Fly Pharma, Inc., priority 2021, dated 2023):

How the values were obtained:
[1] = stability test in acceleration conditions (25° C./humidity 60%): appearance, purity and analogs by HPLC, water content, disintegration time, microbial content; format: physicochemical
cancer-bearing nude rats = conditions: oral, versus TS-1; cited from earlier work
[2] = tested on: patients having a solid cancer; conditions: phase-I trial, patients with solid cancer; cited from earlier work
[3] = bulk drug, 25° C./60% RH, after 3 months

stable period (specifications satisfied) ([1]; acceleration conditions (25° C./humidity 60%)): ≤ 3 months | Analog (% area): Analog-1 (RRT 0.42) [1, 3]: 0.18% | Analog (% area): Impurity 1 (RRT 0.49) [1, 3]: 0.73% | Analog (% area): Impurity 2 (RRT 0.74) [1, 3]: 2.13% | Analog (% area): Impurity 3 (RRT 0.83) [1, 3]: 0.49% | Analog (% area): Impurity 4 (RRT 1.13) [1, 3]: 0.86% | Analog (% area): Total impurities [1, 3]: 5.8% | Analog (% area): relative elution time 0.30 [1, 3]: 0.27% | Analog (% area): relative elution time 0.80 [1, 3]: 0.21% | Analog (% area): relative elution time 0.88 [1, 3]: 0.07% | Analog (% area): relative elution time 0.89 [1, 3]: 0.05% | Analog (% area): relative elution time 0.90 [1, 3]: 0.10% | Analog (% area): relative elution time 0.92 [1, 3]: 0.15% | Analog (% area): relative elution time 0.93 [1, 3]: 0.13% | Analog (% area): relative elution time 0.94 [1, 3]: 0.05% | Analog (% area): relative elution time 1.03 [1, 3]: 0.22% | Analog (% area): relative elution time 1.29 [1, 3]: 0.06% | Analog (% area): relative elution time 1.30 [1, 3]: 0.09% | Appearance [1, 3]: Grayish-white | Purity (% area) [1, 3]: 94.0% | Water content [1, 3]: 0.2% | Passing status: Appearance ([1]; bulk drug, 25° C./60% RH, after 3 months, specification Grayish-white to pale yellow): Passed | Passing status: Water content ([1]; bulk drug, 25° C./60% RH, after 3 months, specification ≤0.5%): Passed | Passing status: Analog, individual impurities ([1]; bulk drug, 25° C./60% RH, after 3 months, specification ≤1.0%): Not | Passing status: Total impurities ([1]; bulk drug, 25° C./60% RH, after 3 months, specification ≤4.0%): Not
Structure (SMILES): CCOCn1cc(F)c(=O)n(C(=O)c2cccc(C(=O)Oc3cc(OC(=O)c4cc(OC(=O)CC)nc(OC(=O)CC)c4)c(Cl)cn3)c2)c1=O [DFP-11207]
therapeutic effects (cancer-bearing nude rats): more excellent than TS-1 | safety (serious gastrointestinal toxicity, reduced blood platelet count) [2]: none of serious gastrointestinal toxicity such as diarrhea and toxicity of reduced blood platelet count were observed
